According to a melting point compilation (Tetko et al.; mined from patent text by program, amines drawn as free bases though some values may be those of a salt):

| melting point [°C] | SMILES |
| --- | --- |
| 286 | N#Cc1c(N2CCN(C(=O)c3cccs3)CC2)c2cccnc2n(Cc2ccccc2F)c1=O |
| > 250 | NC(=O)c1ncn2c1[C@@H]1CCN1C(=O)c1sccc1-2 |
| > 300 | CCn1cc(C(=O)O)c(=O)c2cc3oc(C(=O)O)cc3nc21 |
| 141 to 143 | Cc1nc(O)cc(C(F)(F)F)n1 |
| 90 | O=C(NCCl)Oc1cccc(Cl)c1 |
| 176 | CC(C)n1nc(-c2cnc(N)nc2-c2ccc(Cl)c(Cl)c2)ccc1=O |
| 91 to 92 | COC(=O)c1c(OCc2ccccc2)ccc2c1CC[C@H](NC(C)C)[C@@H]2O (relative stereo) |
| 138 to 140 | Cc1cc(O)ccc1NCCc1ccccn1 |
| 71 to 73 | Oc1c(Sc2ccccc2)sc2ccccc12 |
| 120 to 130 | O=C(O)[C@H](Cc1c[nH]c2ccccc12)NS(=O)(=O)c1ccc2c(c1)Sc1ccccc1O2 |
| 161 to 162 | COc1ccccc1Oc1c(NS(=O)(=O)c2ccc(C(C)(C)C)cc2)nc(CO)nc1OCCOc1ncc(Br)cn1 |
| 222 to 226 | N/N=C/c1ccc(-c2ncn(-c3ccc(OC(F)(F)F)cc3)n2)cc1 |
| 100 to 102 | NC(=O)CCC(CCCCNS(=O)(=O)c1ccc(Cl)cc1)CCCc1cccnc1 (stereo not drawn) |
| 121 | O=C(O)Cc1cccc(C(=O)c2cc3ccsc3s2)c1 |
| 147 to 148 | Cc1ccc(C(=O)CCCCC(=O)O)cc1 |
| 167 to 168 | CCC1CCC(=O)C=C1c1ccc(OCC(=O)OC(C)(C)C(=O)O)c(Cl)c1Cl (stereo not drawn) |
| 160 to 162 | COc1ccc(C2SCC(C(=O)O)N2C(=O)OC(C)(C)C)cc1 (stereo not drawn) |
| 111 to 115 | CCOC(=O)C1=Cc2cc([N+](=O)[O-])ccc2OC1C(F)(F)F (stereo not drawn) |
| 110 to 112 | CCOC(=O)c1ccc(NC=CS(=O)(=O)F)cc1 |
| 205 to 207 | O=C(Nc1cccc2c(-n3ccnc3)c(CO)cnc12)c1c(Cl)cccc1Cl |
| 260 to 262 | CCN1CCN(CC(=O)NC2(c3ccc(Cl)cc3)C(=O)Nc3cc(C#N)cc(C(F)(F)F)c32)CC1 (stereo not drawn) |
| 197 | CS(=O)(=O)C(=C1CN(C(c2ccccc2)c2ccccc2)C1)c1cccc(N)c1 |
| 188 to 189 | CCCCCCCNC(=O)Nc1ccc(OCC)cc1C(=O)NCC1CCN(C(c2ccccc2)c2ccccc2)CC1 |
| 113 to 114 | CC1(C)OC(=O)C(Oc2ccc(Cl)cc2)=C1c1ccc(S(C)(=O)=O)cc1 |

| melting point [°C] | SMILES |
| --- | --- |
| 114 to 116 | CCCCCCCCCCCCNC(=O)C1CCC(=O)N1 (stereo not drawn) |
| 213 to 214 | Cc1c(-c2ccccc2)oc2c(NC(=O)NCCCl)cccc2c1=O |
| 148 to 152 | Cc1nnsc1C(=O)Nc1ccc(-n2nc(C3CC3)cc2C2CC2)c(F)c1 |
| 247 to 249 | CS(=O)(=O)c1cc2c(c(C(=O)O)c1)OCCO2 |
| 219 to 221 | CC(=O)Nc1ccc(C(=O)O)cc1OC(C)=O |
| 155 | Cc1ccc2ccccc2c1COc1ccc(C(=O)NC[C@@H](C(=O)NO)N2CCN(S(C)(=O)=O)CC2)cc1 |
| 81 to 85 | CC(C)(C)OC(=O)NCC(=O)Nc1cccc(NC(=O)C(=O)N2CCC(Cc3ccccc3)CC2)c1 |
| 93 to 95 | C#CCOc1cccc(NC(=O)c2ccccc2C)c1 |
| 266 to 271 | O=C1NC(=O)[C@@]2(C[C@@H](C(=O)NCCO[N+](=O)[O-])Oc3ccc(F)cc32)N1 |
| 198 | CN(O)C(=O)Nc1ccc(S(C)(=O)=O)cc1 |
| 184 to 185 | CCOc1c(C)cnc(CSc2nc3cc4c(cc3[nH]2)OCO4)c1C |
| 65 | Clc1ccc(OCC2CO2)c(OCc2ccccc2)c1Cl (stereo not drawn) |
| 161 to 164 | CCOCc1nc2c(N)nc3ccccc3c2n1CCOCCNC(=O)NC1CCCCC1 |
| 137 to 139 | O=C(CCCN1CCN(c2ccc(CO)c(Cl)c2)CC1)c1ccc(Cl)cc1 |
| 168 | COC(=O)N(C(=O)NN=C1c2ccc(Cl)cc2CC1(O)C(=O)OC)c1ccc(OC(F)(F)F)cc1 (stereo not drawn) |
| 147 to 148 | CCOC(=O)c1cn(Cc2ccccc2)nc1OCc1ccc(OC)c(OCc2nc(-c3ccco3)oc2C)c1 |
| 111 to 112 | COC(=O)/C(=C/c1ccc(OCCN(C)c2nc3ccccc3o2)cc1)OCC(=O)O |
| 141 to 143 | O=c1nc(Cl)cc(-c2ccccc2)n1-c1ccccc1 |
| 165 to 167 | CC(=O)c1cc(Nc2ccn(-c3ccccc3)n2)ccc1O |
| 85 to 86 | CC(C)(C)OC(=O)N1CC(NS(=O)(=O)c2ccc(Oc3ccccc3)cc2)C(SC(C)(C)C)C1 (stereo not drawn) |
| 88 to 94 | CC(C)(C)OC(=O)C=Cc1ccc(C(=O)C(=C(F)F)c2ccccc2)cc1 |
| 72 to 74 | CCCCCCC(Oc1c(Br)cc(-c2ccc(-c3c(Cc4ccccc4)oc4ccccc34)cc2)cc1Br)C(=O)O (stereo not drawn) |
| 220 to 221 | COc1ccc(-n2c(-c3sc(Nc4ccc(Cl)cc4)nc3-c3ccccc3)nc3ccccc3c2=O)cc1 |
| 92 to 96 | COC(=O)c1ccc(Cn2c(C(=O)C3CCN(CCC4(c5ccccc5)CCN(C(=O)c5cc(OC)c(OC)c(OC)c5)C4)CC3)nc3ccccc32)cc1 (stereo not drawn) |

| melting point [°C] | SMILES |
| --- | --- |
| 127 to 128 | CC(C)Oc1nc(CO)sc1C(=O)NCc1ccc(Cl)cc1Cl |
| 204 to 207 | O=C1OC(=O)c2c(Cl)c(Sc3ccccc3)c(Sc3ccccc3)c(Cl)c21 |
| 248 to 250 | C=CCc1c(O)c2cccnc2n(-c2ccccc2)c1=O |
| 93 to 94.5 | COc1cc(OC)nc(Sc2ccnc3cc(Cl)ccc23)n1 |
| 224 to 226 | Nc1nc(N)c(-c2cccc3ccccc23)c(C(F)(F)F)n1 |
| 106 to 107 | CC(C)(NC(=O)Cc1cccc2ccccc12)C(O)c1ccccc1 (stereo not drawn) |
| 215 to 217 | Cc1ccccc1CNc1nc(Cl)nc2ccccc12 |
| 227 to 232 | O=C(NNC(=O)c1c(F)c(F)c(F)c(F)c1F)c1cc(Cl)ccc1Cl |
| 282 to 284 | CCS(=O)(=O)c1ccc(-c2nc(-c3nc4cc(OC)cc(OC)c4c(=O)[nH]3)ccc2OCCO)cc1 |
| 100 | COc1cc(OC)c(C(C)=O)c(O)c1CCC(C)C |
| 110 to 111 | O=C1CN2Cc3cccc(OCCCC(=O)N(CCO)CCCCC4CCCCC4)c3N=C2N1 |
| 126 to 128 | CC(=O)Nc1nc2c(s1)CCN(C(=O)OCc1ccccc1)CC2 |
| 57 to 59.5 | COC(=O)c1nnc(Cl)cc1Cl |
| 247 to 249 | Nc1nc2ccccc2c2sc(CO)nc12 |
| 174 to 180 | CC(C)(C)c1csc(-c2cc3cc(Cc4nc(-c5ccccc5)c(CC(=O)O)s4)ccc3o2)n1 |
| 223 to 225 | CC1=NN=C(c2ccc(NC(=O)CN)cc2)c2cc3c(cc2C1)OCO3 |
| 118 to 119 | CNc1cn(-c2cncc(F)c2)nc1Cl |
| 122 to 127 | Nc1nc2ccccc2c2c1ncn2CCCCNC(=O)c1ccc2ncccc2c1 |
| 256 to 258 | CC(C)(C(=O)O)C1([N+](=O)[O-])OC2=CC=CC2=CC1c1ccccc1 (stereo not drawn) |
| > 300 | O=[N+]([O-])c1ccc2c(c1)[nH]c1cc([N+](=O)[O-])ccc12 |
| 194 to 196 | COc1cc2ccccc2cc1C(=O)NNC(=O)c1ccc2ccccc2c1 |
| < 40 | CCCCCCCCCCCCNC(=O)CCNc1cccc(O)c1 |
| 178 | CC(=O)OC1CCc2oc3ccc(Br)cc3c(=O)c2C1 (stereo not drawn) |
| 139 to 140 | CCC(C)n1ncn(-c2ccc(N3CCN(c4ccc(OC)cc4)CC3)cn2)c1=O (stereo not drawn) |

| melting point [°C] | SMILES |
| --- | --- |
| 282 to 285 | O=C1c2ccc(F)cc2C(=O)N1CCN1CCN(c2n[nH]c3cc(F)ccc23)CC1 |
| 173 to 174 | COc1ccc(CC(=O)Nc2ccc3sc(C)nc3c2Cl)cc1 |
| 236 to 238 | O=C(O)COc1ccc2cc(-c3cnc(Cc4ccccc4)o3)ccc2c1 |
| 210 to 213 | N#Cc1cc(C=C2NC(=S)NC2=O)cc(O)c1O |
| 273 to 275 | CCc1nc2c(N)nc3cc(CCC#N)ccc3c2n1CC1CCOCC1 |
| 186 | OC(Cn1cncn1)(CC(Cl)(Cl)Cl)c1cc(Cl)cc(Cl)c1 (stereo not drawn) |
| 115 | CCC(c1ccc(Nc2ccccc2)c2ccccc12)c1ccc(Nc2ccccc2)c2ccccc12 |
| 192 to 194 | Cc1ccn(-c2ccc(C(=O)O)c(C(F)(F)F)c2)n1 |
| 73 to 74 | Cc1cc([N+](=O)[O-])cnc1CCC#N |
| 242 | COc1ccc(/C=C/c2nc3c(c(=O)n(C)c(=O)n3C)n2C)c(OC)c1 |
| 125 to 126 | CCC(C)(C)c1ccc(OCCCNC(=O)c2cc(OS(=O)(=O)CCCOc3ccc(N)cc3)c3ccccc3c2O)c(C(C)(C)CC)c1 |
| 158 to 159 | N#Cc1ccc2c(c1)N=Cc1ccccc1O2 |
| 202 to 203 | Cc1ccc(Oc2cccc(C3C4=C(CC(C)(C)CC4=O)NC4=C3C(=O)CC(C)(C)C4)c2)cc1 |
| 71 to 73 | C[C@H](C(=O)c1ccccc1F)n1ccn(-c2ccc(OCC(F)(F)C(F)F)cc2)c1=O |
| 179 to 180 | O=C(OCc1ccccc1)N1CC[C@@H](Oc2ccc([N+](=O)[O-])cc2)[C@H](O)C1 (relative stereo) |
| 100 to 101 | O=C1OCCC=C1c1ccccc1 |
| 142 to 143 | CSc1ncc(CO)c(Nc2ccccc2)n1 |
| 130 to 131 | NC(=O)c1cccc2c1OC(F)(F)O2 |
| 165 to 166 | CC(C)CCOc1cccc2oc(-c3nnn[nH]3)cc(=O)c12 |
| 100 | OCC1CN(Cc2ccccc2)C(c2ccccc2)O1 (stereo not drawn) |
| 115 to 118 | Cc1cccc(-c2n[nH]cc2-c2ccc(F)c(-c3ccc(S(N)(=O)=O)cc3)c2)n1 |
| 95.1 to 97.4 | COc1ccc(Cc2nc3c(N)nc4ccccc4c3n2CCCCNC(=O)c2ccc3ccccc3n2)cc1 |

| SMILES | melting point [°C] |
| --- | --- |
| O=[N+]([O-])N=C1SCCN1Cc1ccc(Cl)nc1 | 137 to 138 |
| CCC1OC1CC(=O)OC(C#N)c1ccc2ccccc2c1 (stereo not drawn) | 60 to 61 |
| COC(=O)c1ccc(N2CCN(Cc3ccccc3)CC2)cc1 | 105 to 107 |
| CN1CCc2cc(O)c(O)c(Sc3ccc(F)cc3)c2CC1 | 105 to 114 |
